According to patent publication US20140057884A1, “PHARMACEUTICAL COMPOSITION FOR PREVENTING OR TREATING LIVER CANCER COMPRISING STIGMASTEROL AND 5 BETA-HYDROXYSITOSTANOL ISOLATED FROM NAVICULA INCERTA” (PUKYONG NATIONAL UNIVERSITY INDUSTRY-UNIVERSITY CO, priority 2012, published 2014):
Like-named read-outs stand apart in the source and are kept apart here.

Experiments:
Assay type in all cases: cell-based, human
MTT cell viability assay = conditions: human
Protocol: (§1) Cell viability was measured using MTT [3-(4,5-dimethylthiazol-2-yl)-2,5-diphenyltetrazolium bromide] assay utilizing […] MTT is reduced to purple formazan by the action of mitochondrial dehydrogenase which has viability only in living cells.
(§2) The HepG2 cells were grown in 96-well plates at a density of 2×10^4 cells/well. After 24 h, cells were treated with different concentrations ([…], 20 μM) of stigmasterol and 5β-hydroxysitostanol. After incubation for 24 h, the cells were incubated with 100 μL of MTT (1 mg/mL) for 4 h. Finally, DMSO was added so that the amount of formazan crystal was determined by measuring the absorbance at 550 nm using a multidetection microplate reader.

HepG2 cells [1] = assay: MTT cell viability assay; conditions: for cell viability with increasing concentrations: HepG2 cells, 5-20 μM, 24 h
Protocol: as §1, §2

HepG2 cells [2] = assay: Observation of morphological changes of the cells (light microscope; fluorescence microscope after Hoechst 33342 staining); conditions: 24 h; for shape of the attached HepG2 cells / number of attached cells (living cells): light microscope; for nuclei of the attached HepG2 cells: increasing concentrations (5, 10, 20 μM), Hoechst 33342, fluorescence microscope; for number of attached cells (living cells): increasing doses
Protocol: HepG2 ells were grown in 12-well plates at a density of 2×10^4 cells/well. After overnight incubation, cells were treated with different concentrations ([…], 20 μM) of stigmasterol and 5β-hydroxysitostanol and incubated for another 24 h. The cells were washed with PBS. After washing, 4% (v/v) formaldehyde solution was dissolved in PBS and added to the plate, and left for 1 h at room temperature. The fixed cells were detected by a light microscope.
Further, the HepG2 cells were grown in 12-well plates at a density of 2×10^4 cells/well. After overnight incubation, cells were treated with different concentrations (5 μM, 10 μM, 20 μM) of stigmasterol and 5β-hydroxysitostanol and incubated for another 24 h. The cells were then washed with PBS. After washing, 4% (v/v) formaldehyde solution was dissolved in PBS and added to the plate, and left for 1 h at room temperature so that cells were fixated. The fixed cells were stained with staining dye, Bisbenzimide Hoechst 33342 and left for 1 h at room temperature. The stained cells were observed under fluorescence microscope.

HepG2 cells [3] = assay: Cell cycle analysis (PI staining, FACS); conditions: for G2/M phase of the cell cycle as the concentration increased: HepG2 cells, 5, 10, 20 μM; for G2/M phase of the cell cycle: HepG2 cells, highest concentration (20 μM)
Protocol: The HepG2 cells were cultured in 6 cm^2 dishes treated with different concentrations (5 μM, 10 μM, 20 μM) of stigmasterol and 5β-hydroxysitostanol. The cells were stained with propidium iodide (PI), and the cell cycle was analyzed by measuring the amount of DNA with FACS.

HepG2 cells [4] = assay: RT-PCR analysis of mRNA expression of apoptosis-related genes
Protocol: HepG2 cells treated with stigmasterol and 5β-hydroxysitostanol were treated with TRIzol® reagent were transferred to microtubes at each concentration. 200 μl, of chloroform was added to each tube and microtubes were centrifuged at 12,000×g for 15 min. After centrifugation, supernatant phase was transferred to a new microtube and mixed with isopropanol at the ratio of 1:1. After incubation for 10 min at room temperature and centrifugation at 12,000×g for 10 min, supernatant was discarded and RNA pellet was washed, followed by centrifugation at 12,000×g for 15 min. Following removal of ethanol, RNA pellet was suspended in DEPC-treated water and so that RNA pellet was dissolved at 55° C. for 10 min. Dissolved RNA pellet was kept at −20° C. for further experiments.
RT-PCR was performed to check specific mRNA expression in HepG2 cells.
Thirteen μg of RNA dissolved in DEPC— treated water and 2 μL of oligo (di) were added to PCR microtubes and denaturated at 70° C. for 5 min in a thermal cycler. Later, RT-PCR mastermix was added to microtubes to synthesize cDNA. Primers corresponding to specific RNA were bound to the synthesized cDNA, and gene amplification was carried out with the thermal cycler. The PCR products were electrophoresed on 1% agarose gel and bands of the respective primers were checked with UV.

HepG2 cells [5] = assay: Western blotting assay; conditions: HepG2 cells, 5, 10, 20 μM, 24 h, Western blot
Protocol: Western blotting assay was performed to investigate specific […] expression of HepG2 cells.
HepG2 cells were cultured at a density of 1×10^4 cells/ml in 10 cm^2 culture dishes for 24 h. The cells were then treated with different concentrations (5 μM, 10 μM, 20 μM) of stigmasterol and 5β-hydroxysitostanol for 24 h. The cells were lysed in cell lysis buffer to give protein extract. The extracted protein was separated by molecular weight using SDS electrophoresis. Corresponding antibodies were attached to intended protein and the protein bands were detected with ECL solution using LAS-3000 system.

Structure (SMILES) | cytotoxicity at 24 h, 5 μM (MTT cell viability assay) [%] | cytotoxicity at 24 h, 10 μM (MTT cell viability assay) [%] | cytotoxicity at 24 h, 20 μM (MTT cell viability assay) [%] | cytotoxicity according to concentration (HepG2 cells [1]) | cell viability with increasing concentrations (HepG2 cells [1]) | shape of the attached HepG2 cells (HepG2 cells [2]) | nuclei of the attached HepG2 cells (HepG2 cells [2]) | number of attached cells (living cells) (HepG2 cells [2]) | G2/M phase of the cell cycle as the concentration increased (HepG2 cells [3]) | G2/M phase of the cell cycle (HepG2 cells [3]) [%] | expression of caspase-8, Bax and FASL (HepG2 cells [4]) | expression of cell apoptosis inducing factors caspase-8, 9 (HepG2 cells [5]) | cytotoxicity at 24 h, 5 μM (MTT cell viability assay; HepG2 cells, 5 μM, 24 h, MTT, read-out: inhibition of cell viability (rate)) [%] | cytotoxicity at 24 h, 10 μM (MTT cell viability assay; HepG2 cells, 10 μM, 24 h, MTT, read-out: inhibition of cell viability (rate)) [%] | cytotoxicity at 24 h, 20 μM (MTT cell viability assay; HepG2 cells, 20 μM, 24 h, MTT, read-out: inhibition of cell viability (rate)) [%] | expression of cell apoptosis inducing factors caspase-8, 9, Bax, p53, p21, FAS and FASL (HepG2 cells [4]) | expression of cell apoptosis inhibiting factors Bcl-2 and XIAP (HepG2 cells [4])
CCC(CCC(C)C1CCC2C3CCC4(O)CC(O)CCC4(C)C3CCC12C)C(C)C (stereo not drawn) [5β-hydroxysitostanol] | ~6 | ~9 | ~15 | no cytotoxicity | dose-dependent decrease | shrinkage | significantly condensed | remarkably reduced | increased | 25.83 | upregulates | upregulate |  |  |  |  | 
CC[C@H](/C=C/[C@@H](C)[C@H]1CC[C@H]2[C@@H]3CC=C4C[C@@H](O)CC[C@]4(C)[C@H]3CC[C@]12C)C(C)C [stigmasterol] |  |  |  |  | dose-dependent decrease | shrinkage | significantly condensed | remarkably reduced | increased | 26.87 |  | upregulate | ~40 | ~43 | ~54 | upregulates | downregulates
